Test results published in article PMC4965777, “Molecular characterization of Tps1 and Treh genes in Drosophila and their role in body water homeostasis” (Scientific Reports, 2016).

Key:
Format in all cases: biochemical
cTreh = target: T1, cTreh (Drosophila melanogaster, UniProt A4UZR3); assay: trehalose hydrolysis; glucose released determined with glucose assay kit; details: 5 μg trehalose; 0.12 pmol His-cTreh in 15 μl PBS; 30 °C, 2 h
T1 construct: gene Treh; cytoplasmic isoform without signal peptide, N-terminal His-tag (pET28a), E. coli BL21(DE3), Ni-NTA
T1 sequence (A4UZR3 1-560): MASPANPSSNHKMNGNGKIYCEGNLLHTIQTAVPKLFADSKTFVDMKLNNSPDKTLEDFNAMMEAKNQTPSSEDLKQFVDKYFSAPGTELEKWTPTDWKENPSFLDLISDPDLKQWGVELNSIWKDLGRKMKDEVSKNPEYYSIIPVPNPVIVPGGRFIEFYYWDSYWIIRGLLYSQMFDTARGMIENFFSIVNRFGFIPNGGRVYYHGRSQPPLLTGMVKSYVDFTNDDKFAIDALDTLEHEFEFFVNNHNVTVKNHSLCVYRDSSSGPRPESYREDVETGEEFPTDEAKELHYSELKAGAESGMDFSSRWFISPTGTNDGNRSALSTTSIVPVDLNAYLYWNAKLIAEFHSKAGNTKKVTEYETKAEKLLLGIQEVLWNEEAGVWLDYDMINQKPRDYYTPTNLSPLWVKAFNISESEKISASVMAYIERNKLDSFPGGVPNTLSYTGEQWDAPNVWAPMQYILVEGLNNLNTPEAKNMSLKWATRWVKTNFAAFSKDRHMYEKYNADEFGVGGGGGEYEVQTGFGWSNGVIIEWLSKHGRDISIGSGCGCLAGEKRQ

CG5171 = target: T2, CG5171 (Drosophila melanogaster, UniProt Q9VM19); assay: dephosphorylation; trehalose released determined with trehalase and glucose assay kit; details: 0.5 mM T6P; 5 mM MgCl2; PBS-type phosphate buffer pH 7.4; 30 °C; 0.02 nmol enzyme in 30 μl
T2 construct: gene Tpp; N-terminal His-tag (pET28a), E. coli BL21(DE3), Ni-NTA
T2 sequence (Q9VM19 1-273): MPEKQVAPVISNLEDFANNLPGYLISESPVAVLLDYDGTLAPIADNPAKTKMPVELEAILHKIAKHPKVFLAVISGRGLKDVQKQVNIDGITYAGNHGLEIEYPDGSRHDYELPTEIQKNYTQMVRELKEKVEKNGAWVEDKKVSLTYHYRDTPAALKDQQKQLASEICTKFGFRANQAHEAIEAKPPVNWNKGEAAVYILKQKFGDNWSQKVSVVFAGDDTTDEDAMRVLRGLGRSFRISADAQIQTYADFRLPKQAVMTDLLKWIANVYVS

OtsB = target: T3, OtsB (Escherichia coli, UniProt P31678); assay: as above; details: 0.5 mM T6P; 5 mM MgCl2; PBS-type phosphate buffer pH 7.4; 30 °C; 0.02 nmol enzyme in 30 μl
T3 construct: N-terminal His-tag (pET28a), E. coli BL21(DE3), Ni-NTA
T3 sequence (P31678 whole entry): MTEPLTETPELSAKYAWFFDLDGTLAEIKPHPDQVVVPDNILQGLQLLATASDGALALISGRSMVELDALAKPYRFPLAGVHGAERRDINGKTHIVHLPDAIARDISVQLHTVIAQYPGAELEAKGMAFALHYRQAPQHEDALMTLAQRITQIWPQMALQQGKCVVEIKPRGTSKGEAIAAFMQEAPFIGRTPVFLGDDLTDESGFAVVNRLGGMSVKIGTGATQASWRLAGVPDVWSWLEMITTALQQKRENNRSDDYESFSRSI

Tps1-TPP = target: T4, Tps1-TPP (Drosophila melanogaster, UniProt Q9Y119); assay: as above; details: 0.5 mM T6P; 5 mM MgCl2; PBS-type phosphate buffer pH 7.4; 30 °C; 0.02 nmol enzyme in 30 μl
T4 construct: C-terminal TPP domain only (borders not in text), N-terminal His-tag (pET28a), E. coli BL21(DE3), Ni-NTA
T4 sequence (Q9Y119 entry or part of it): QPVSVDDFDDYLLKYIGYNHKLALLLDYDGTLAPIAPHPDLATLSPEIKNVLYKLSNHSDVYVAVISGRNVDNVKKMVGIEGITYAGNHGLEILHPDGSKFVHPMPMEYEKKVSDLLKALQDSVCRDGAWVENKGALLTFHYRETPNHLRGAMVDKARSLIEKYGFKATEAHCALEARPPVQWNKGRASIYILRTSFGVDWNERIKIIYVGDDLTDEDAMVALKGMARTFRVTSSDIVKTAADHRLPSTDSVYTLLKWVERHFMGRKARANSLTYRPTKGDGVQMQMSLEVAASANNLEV

Row | Structure (SMILES) | trehalose hydrolysis; glucose released determined with glucose assay kit (cTreh) | dephosphorylation; trehalose released determined with trehalase and glucose assa (CG5171) | dephosphorylation; trehalose released determined with trehalase and glucose assa (OtsB) | dephosphorylation; trehalose released determined with trehalase and glucose assa (Tps1-TPP)
1 | OC[C@H]1O[C@H](O[C@H]2O[C@H](CO)[C@@H](O)[C@H](O)[C@H]2O)[C@H](O)[C@@H](O)[C@@H]1O [trehalose] | The recombinant cTreh exhibited a specific breakdown of trehalose to produce glucose in vitro | – | – | –
2 | O=P(O)(O)OC[C@H]1O[C@H](O[C@H]2O[C@H](CO)[C@@H](O)[C@H](O)[C@H]2O)[C@H](O)[C@@H](O)[C@@H]1O [trehalose-6-phosphate] | – | recombinant Tps1-TPP and CG5171, but not CG5177, dephosphorylated T6P under our experimental conditions | Tps1-TPP showed a lower activity than CG5171 and OtsB in vitro | recombinant Tps1-TPP and CG5171, but not CG5177, dephosphorylated T6P under our experimental conditions
